# Where two headings read alike, the source gives them in different places.
# Tests used:
# PAK1 [1] = biological target: T1, PAK1 (Homo sapiens, UniProt Q13153); test: PAK1 enzymatic assay (Kinase-Glo Plus / ADP-Glo luminescence); assay type: biochemical
# Description: These assays were carried out as described previously. All of the enzymatic reactions were conducted at 30 °C for 40 min. The 50 µl reaction mixture contains 40 mM Tris, pH 7.4, 10 mM MgCl2, 0.1 mg/ml BSA, 1 mM DTT, 50 µM ATP, 0.2 μg/ml PAK1 and 100 uM lipid substrate. The compounds were diluted in 10% DMSO and 5 µl of the dilution was added to a 50 µl reaction so that the final concentration of DMSO is 1% in all of the reactions. The assay was performed using the Kinase-Glo Plus luminescence kinase assay kit and ADP-Glo Plus luminescence kinase assay kit. It measures kinase activity by quantitating the amount of ATP remaining in solution following a kinase reaction. The luminescent signal from the assay is correlated with the amount of ATP present and is inversely correlated with the amount of kinase activity. The IC50 values were calculated using nonlinear regression with normalised dose − response fit using Prism GraphPad software.
# MDA-MB-231 cells [2] = test: Cell viability assay (MTT); assay type: cell-based; details: for IC50: MTT
# Description: (§1) MDA-MB-231 were purchased from American Type Culture Collection (ATCC, Manassas, VA, USA). Cells were cultured in DMEM with 10% foetal bovine serum and incubated with 5% CO2. Antibodies used in this study were as follows: cdc25c (4688, CST), pcdc2^Tyr[15] (4539, CST), cyclinB1 (4135, CST), PAK1 (ab223849, CST), p-PAK1^Ser199 (ab192814, abcam), JNK (9252, CST), p-JNK (9255, CST), c-Jun (9165, CST), p-c-Jun (3270, CST), p-c-Raf^Ser259(9421, CST), p-MEK ^Ser217/221 (9154, CST), p-ERK ^Thr202/Tyr204 (9101, CST), β-actin (3700, CST). MTT (M2128) was purchased from Sigma- Aldrich (St. Louis, MO, USA).
# Cells were dispensed in 96-well plates at a density of 5 × 10^4 cells/ml. After 24 h or 48 h incubation, cells were treated with different concentrations of compounds for the indicated time periods. Cell viability was measured by the MTT assay.
# MDA-MB-231 cells [3] = test: Cell cycle assay (PI staining, flow cytometry); assay type: cell-based; details: 2.5, 5, 10 μM, 48 h
# Description: For cell cycle detection, MDA-MB-231 cells were treated with 2.5, 5, 10 μM 7j for 48 h and then ethyl alcohol-fixed at 4 °C for 24 h. Then the cell cycle distribution were determined by flow cytometry analysis of PI staining.
# PAK1 [4] = biological target: T1, PAK1; test: Western blot of PAK1 and p-PAK1 Ser199 in MDA-MB-231 cells; assay type: cell-based; details: 48 h
# Description: as §1
# (§2) Cells were treated with 7j for indicated times. Both adherent and floating cells were collected. Western blot analysis was carried out. Briefly, the cell pellets were resuspended with lysis buffer consisting of Hepes 50 mM pH 7.4, Triton-X-100 1%, sodium orthovanada 2 mM, sodium fluoride 100 mM, edetic acid 1 mM, PMSF 1 mM, aprotinin (Sigma, MO, USA) 10 mg/L and leupeptin (Sigma) 10 mg/L and lysed at 4 °C for 1 h. After 12,000 rpm centrifugation for 15 min, the protein content of supernatant was determined by the Bio- Rad DC protein assay (Bio-Rad Laboratories, Hercules, CA, USA). Equal amounts of the total protein were separated by 10–15% SDS-PAGE and transferred to PVDF membranes, the membranes were soaked in blocking buffer (5% skimmed milk or BSA). Proteins were detected using primary antibodies, followed by HRP-conjugated secondary antibody and visualised by using ECL as the HRP substrate. Quantification of immunoblot was performed by Quantity One 4.4.
# PAK1 [5] = biological target: T1, PAK1; test: Cellular thermal shift assay (CETSA); assay type: cell-based; details: 10 μM, 24 h; 48, 52, 56 °C
# Description: The ability of 7j to interact with and stabilise PAK1 protein in intact cells, was analysed as described before. Briefly, cells cultured in 100 × 20 mm tissue culture dishes at 90% confluence were treated with media containing DMSO or 7j (10 μM) for 24 h. After that cells were detached with trypsin and re-suspended in PBS. The cell suspension was heated for 3 min to 48, 52, and 56 °C. Subsequently, cells were lysed using liquid nitrogen and two repeated cycles of freeze-thaw. Precipitated proteins were separated from the soluble fraction by centrifugation at 17,000 g for 20 min. Soluble proteins, collected in the supernatant, were kept at −80 °C until Western blot analysis.
# MDA-MB-231 cells [6] = test: Colony formation assay; assay type: cell-based
# cdc25c/cdc2 pathway = test: Immunofluorescence and western blot of cdc25c/cdc2 pathway in MDA-MB-231 cells; assay type: cell-based
# Description: (§3) For immunofluorescence staining, non-specific antibody binding was blocked by incubating with PBS containing 1.5% goat serum. The MDA-MB-231 cells were sequentially incubated, starting with p-cdc2^Tyr[15] antibody (1:200), p-ERK1/2 ^Thr202/Tyr204 antibody (1:200) diluted in PBS containing 1% BSA incubated overnight at 4 °C, followed by addition of fluorescent-labelled secondary antibodies for 1 h at room temperature.
# as §2
# Cells were transfected with PAK1 (6361, CST) and negative control (6568, CST) siRNAs at 100 nM final concentration using Lipofectamine RNAiMAX/Lip3000 reagent (Invitrogen) according to the manufacturer’s instructions. The transfected cells were used for subsequent experiments 48 h later.
# MAPK-ERK pathway = test: Immunofluorescence and western blot of MAPK-ERK pathway in MDA-MB-231 cells; assay type: cell-based
# Description: as §3, §2
# MAPK-JNK pathway = test: Western blot of MAPK-JNK pathway in MDA-MB-231 cells; assay type: cell-based; details: 2.5, 5, 10 µM, 48 h western blot
# Description: as §2
# [7] = tested in triplicate, mean ± SD, 50 µM ATP, read-out: Kinase inhibitory activity (IC50, μM) PAK1
# [8] = 2.5, 5, 10 µM, 48 h western blot
# T1 sequence (Q13153 whole entry): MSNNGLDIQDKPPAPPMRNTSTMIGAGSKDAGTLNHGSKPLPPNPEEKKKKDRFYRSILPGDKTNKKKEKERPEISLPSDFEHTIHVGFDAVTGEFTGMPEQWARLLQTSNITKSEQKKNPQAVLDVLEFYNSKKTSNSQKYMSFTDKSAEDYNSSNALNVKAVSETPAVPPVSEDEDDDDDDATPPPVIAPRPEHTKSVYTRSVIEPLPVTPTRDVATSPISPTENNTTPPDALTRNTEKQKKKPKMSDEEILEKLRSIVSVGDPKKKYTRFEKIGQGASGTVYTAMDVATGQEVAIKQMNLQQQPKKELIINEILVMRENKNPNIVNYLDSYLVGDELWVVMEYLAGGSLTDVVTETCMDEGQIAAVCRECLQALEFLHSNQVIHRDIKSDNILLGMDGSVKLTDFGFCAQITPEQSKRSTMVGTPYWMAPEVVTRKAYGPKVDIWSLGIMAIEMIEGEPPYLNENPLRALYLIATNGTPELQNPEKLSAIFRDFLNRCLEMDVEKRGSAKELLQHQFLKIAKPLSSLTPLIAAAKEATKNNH
structure (smiles),measurement,setting,value
"NC(=O)c1c(NC(=S)NC(=O)c2cccc(C(F)(F)F)c2)sc2c1CCN(C(=O)c1ccccc1Cl)C2 [Compound 7c, 6–(2-chlorobenzoyl)-2–(3-(3-(trifluoromethyl)benzoyl)thioureido)-4,5,6,7-tetrahydrothieno[2,3-c]pyridine-3-carboxamide]",IC50,PAK1 [1]; [7],9.37 ± 1.03 µM
same,melting point,,166 to 169 °C
"CC(=O)N1CCc2c(sc(NC(=S)NC(=O)c3cccc(C(F)(F)F)c3)c2C(N)=O)C1 [Compound 7d, 6-acetyl-2–(3-(3-(trifluoromethyl)benzoyl)thioureido)-4,5,6,7-tetrahydrothieno[2,3-c]pyridine-3-carboxamide]",IC50,PAK1 [1]; [7],1.15 ± 0.97 µM
same,melting point,,166 to 169 °C
CC(C)(C)OC(=O)N1CCc2c(sc(NC(=O)c3ccccc3)c2C(N)=O)C1 [2169–1087],inhibition at 30 µM,PAK1 [1]; read-out: PAK1 inhibition rate at 30 μM,78%
same,IC50,PAK1 [1]; [7],23.5 µM
same,Antiproliferatory activity in MDA-MB-231 cells at 50 μM,MDA-MB-231 cells [2]; 50 μM,no antiproliferatory activity
"NC(=O)c1c(NC(=S)NC(=O)c2cccc(C(F)(F)F)c2)sc2c1CCN(C(=O)C1CC1)C2 [Compound 7j, 6-(cyclopropanecarbonyl)-2–(3-(3-(trifluoromethyl)benzoyl)thioureido)-4,5,6,7-tetrahydrothieno[2,3-c]pyridine-3-carboxamide]",Fold less PAK1 inhibitory activity in comparison to the standard FRAX597,PAK1 [1]; 7j versus FRAX597,over 10 fold
same,IC50,PAK1 [1]; [7],0.21 ± 0.05 µM
same,IC50,"PAK1 [1]; value given in nM in the text, read-out: PAK1 IC50",0.209 µM
same,IC50,"MDA-MB-231 cells [2]; Homo sapiens, MDA-MB-231, 24 h, 24 h, read-out: MDA-MB-231 cell viability IC50, 24 h",7.37 µM
same,IC50,"MDA-MB-231 cells [2]; Homo sapiens, MDA-MB-231, 48 h, 48 h, read-out: MDA-MB-231 cell proliferation IC50, 48 h",4.67 µM
same,IC50,"MDA-MB-231 cells [2]; 48 h, read-out: MDA-MB-231 cell proliferation IC50, 48 h",4.67 µM
same,Cell cycle arrest,MDA-MB-231 cells [3],induced obviously G2/M cell cycle arrest
same,Phosphorylation of PAK1 at Ser199,"PAK1 [4]; 2.5, 5, 10 μM",inhibited the phosphorylation of PAK1 at Ser199
same,PAK1 expression (western blot),PAK1 [4]; larger dose 10 μM,suppressed PAK1 expression
same,PAK1 expression (western blot),PAK1 [4]; smaller dose 2.5 μM and 5 μM,did not affect PAK1 expression
same,Thermal stabilisation of PAK1 (CETSA),PAK1 [5],could stabilise PAK1
same,Proliferation and colony formation ability of MDA-MB-231 cells,MDA-MB-231 cells [6],obviously inhibited
same,p-cdc2 Tyr15 expression,"cdc25c/cdc2 pathway; 5 µM, 48 h immunofluorescence",obviously increased
same,"Expression of cdc25c, cyclinB1, Pin1 and NEDD8",cdc25c/cdc2 pathway; [8],could decrease the expression
same,Phosphorylation of p-cdc2 at Tyr15 after PAK1 knockdown,"cdc25c/cdc2 pathway; si-PAK1, 5 μM, 48 h",almost did not affect
same,p-ERK1/2 Thr202/Tyr204 expression and nucleus distribution,"MAPK-ERK pathway; 5 µM, 48 h immunofluorescence",inhibited its expression and nucleus distribution
same,"Phosphorylation of p-c-Raf, p-MEK1/2 and p-ERK1/2",MAPK-ERK pathway; [8],suppressed MAPK-ERK pathway
same,JNK and c-Jun phosphorylation,MAPK-JNK pathway,decrease of JNK and c-Jun phosphorylation

# — paper PMC7470115, “Design, synthesis and biological evaluation of novel tetrahydrothieno [2,3-c]pyridine substitued benzoyl thiourea derivatives as PAK1 inhibitors in triple negative breast cancer” (Journal of Enzyme Inhibition and Medicinal Chemistry, 2020)
